Read-outs that look alike come from different tables or passages of the source.
Columns and labels:
[1] = molecular target: MNV-1 3CLpro (codon-optimized, full-length, recombinant) (Norovirus, UniProt Q80J95); assay: biochemical; design: species or system murine norovirus-1 (GV)
[2] = molecular target: TGEV 3CLpro (full-length, 6 His, recombinant) (Porcine transmissible gastroenteritis coronavirus strain Purdue, UniProt P0C6V2); assay: biochemical; design: species or system transmissible gastroenteritis virus (strain Miller)
[3] = tested on: TGEV; assay: Cell-based screening, TGEV in ST cells (Example 2); design: species or system transmissible gastroenteritis virus; conditions: Alphacoronavirus 1; ST cells; read-out: Inhibition [ED50 (μM)] against various viruses: Coronavirus, TGEV
Procedure: (§1) 3. Cell-based screening of inhibitor. The effects of each inhibitor on the viral replication were examined. The list of viruses and corresponding cell lines are listed above in Table 2. Briefly, confluent cells were inoculated with virus at a MOI of 5 or 0.05 for 1 hr, and medium was replaced with medium containing mock-medium or each compound (up to 100 μM). The virus infected cells were further incubated for up to 96 hrs, and the replication of virus was measured by TCID50 assay with the 10-fold dilution of each sample used for virus titration (Reed and Muench, 1938). In some viruses, the virus protein and genome expression levels were detected by Western blot analysis and real-time qRT-PCR, respectively, as described below. The IC50s of the compounds were calculated.

[4] = molecular target: Norwalk virus 3CL protease (Norovirus, UniProt Q83883); assay: Recombinant NV protease fluorogenic substrate inhibition assay (Example 1); format: biochemical; conditions: 30 min pre-incubation, 30° C., pH 8.0
Procedure: After a 30 minute incubation period, 5 μL of 12 μM Edans-[…]-Dabcyl (SEQ ID NO:1) substrate in DMSO was then added and the increase in fluorescence was monitored for 30 minutes at an excitation and emission wavelength of 360 and 460 nm, respectively. Using a HORIBA FluoroMax 4 spectrofluorometer. Hydrolysis curves were linear. The final enzyme and substrate concentrations were 2.5 μM and 300 nM, respectively. […] Furthermore, the nature of the cap was also important (compare, for example, inhibitors A and D).

[5] = PK and oral bioavailability studies in rats; conditions: 20 mg/Kg (body weight), IV or PO
[6] = molecular target: NV 3CLpro (codon-optimized, full-length, N-terminal 6 His, recombinant) (Norovirus, UniProt Q83883); format: biochemical, Norwalk virus (human norovirus GI)
[7] = molecular target: PV 3Cpro (codon-optimized, N-terminal 6 His, recombinant) (Poliovirus type 1, UniProt P03300); assay: biochemical; design: species or system poliovirus (poliomyelitis virus)
[8] = tested on: HAV; assay: Cell-based screening, HAV (Example 2); design: species or system hepatitis A virus; conditions: Picornaviridae; read-out: Inhibition [ED50 (μM)] against various viruses: Picornavirus, HAV
Procedure: as §1

[9] = tested on: FIPV-1146; assay: FIPV-1146 replication in CRFK cells, TCID50 method; format: cell-based, feline coronavirus; conditions: Alphacoronavirus 1, MOI 0.05, mean ± SEM
Procedure: (§2) Crandell Rees feline kidney (CRFK) cells were maintained in minimal essential medium containing 2-5% fetal bovine serum and antibiotics (chlortetracycline [25 μg/ml], penicillin [250 U/ml], and streptomycin [250 μg/ml]). FIPV WSU 79-1146 and FECV WSU 79-1683 strains are the prototypes of serotype II FIPV or FECV, respectively, and were purchased from ATCC (Manassas, Va.).
(§3) The cells were further incubated in the presence of each compound for 1 hr at 37° C. Then […] or FECV-1683 was inoculated to the cells at a multiplicity of infection (MOI) of 0.05 or 5.
(§4) b. TCID50 Method. A standard TCID50 method with the 10-fold dilution of each sample was used for virus titration.

[10] = tested on: FCV; assay: Cell culture system, FCV replication in CRFK cells (Example 3); format: cell-based, feline calicivirus; conditions: Feline calicivirus; cell-based assay, CRFK cells; read-out: IC50 against FCV replication
[11] = tested on: Teschovirus; assay: organism not typed; format: cell-based, porcine teschovirus; conditions: read-out: Inhibition [ED50 (μM)] against various viruses: Picornavirus, Teschovirus
[12] = tested on: FECV-1683; assay: FECV-1683 replication in CRFK cells, TCID50 method; format: cell-based, feline coronavirus; conditions: Alphacoronavirus 1, MOI 0.05, mean ± SEM
Procedure: as §2, §3, §4

[13] = tested on: FIPV-1146; assay: Combination treatment of CA074-Me and GC373 on FIPV-1146 replication, MacSynergy II; format: cell-based, feline coronavirus; conditions: GC373 alone at 0.05 μM, FIPV-infected CRFK cells
Procedure: The CRFK cells were incubated with GC373 (0.02˜0.2 μM), CA074-Me (0.5˜5 μM), or the combinations of GC373 (0.02˜0.2 μM) and CA074-Me (0.5˜5 μM) for 1 hr at 37° C. prior to inoculation of FIPV-1146 at an MOI of 0.05. After 24 hrs of incubation, virus replication was assessed with virus titration using the TCID50 method. Drug-drug interactions were analyzed by the three-dimensional model of Prichard and Shipman, using the MacSynergy II software at 95% confidence limits. Theoretical additive interactions were calculated from the dose-response curve for each compound individually, and the calculated additive surface was subtracted from the experimentally determined dose-response surface to give regions of synergistic or antagonistic interactions. The resulting surface appears as horizontal plane at 0% of synergy if the interactions of two compounds are additive. Any peak above or below this plane indicates synergy or antagonism, respectively.

[14] = tested on: norovirus (NV replicon-harboring HG23 cells); assay: NV replicon-harboring cells (HG23), NV genome levels by qRT-PCR (Example 1); format: cell-based, Norwalk virus; conditions: read-out: ED50, effective dose that inhibits 50% of norovirus replication, NV genome levels at 24 hrs post-treatment
[15] = tested on: HAV; assay: Cell culture system, HAV replication in FRhK-4 cells (Example 3); format: cell-based, hepatitis A virus
[16] = tested on: 229E; assay: Cell-based screening, 229E in MRC-5 cells (Example 2); conditions: Human coronavirus 229E, MRC5; MRC-5 cells; read-out: Inhibition [ED50 (μM)] against various viruses: Coronavirus, 229E
Procedure: as §1

[17] = tested on: MHV; assay: Cell-based screening, MHV in CCL-9.1 cells (Example 2); design: species or system mouse hepatitis virus; conditions: Murine coronavirus; CCL-9.1 cells; read-out: Inhibition [ED50 (μM)] against various viruses: Coronavirus, MHV
[18] = tested on: 3CLpro of NV, MD145, MNV-1; format: biochemical, norovirus; conditions: optimized FRET-based protease assay
[19] = tested on: HG23 cells; conditions: human

PV 3Cpro (codon-optimized, N-terminal 6 His, recombinant), sequence (P03300 1566-1748 limits assumed): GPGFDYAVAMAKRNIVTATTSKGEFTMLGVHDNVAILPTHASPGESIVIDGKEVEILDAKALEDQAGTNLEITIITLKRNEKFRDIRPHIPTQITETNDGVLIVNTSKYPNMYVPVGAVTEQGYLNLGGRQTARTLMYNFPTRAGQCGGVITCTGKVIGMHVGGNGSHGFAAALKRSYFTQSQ
Norwalk virus 3CL protease, sequence (Q83883 1101-1281): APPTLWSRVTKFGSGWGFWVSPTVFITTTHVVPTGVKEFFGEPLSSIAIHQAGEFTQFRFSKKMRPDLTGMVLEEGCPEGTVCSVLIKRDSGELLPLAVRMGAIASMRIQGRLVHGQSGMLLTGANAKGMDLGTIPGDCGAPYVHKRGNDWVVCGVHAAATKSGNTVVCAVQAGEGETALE
NV 3CLpro (codon-optimized, full-length, N-terminal 6 His, recombinant), sequence (Q83883 1101-1281): as above
MNV-1 3CLpro (codon-optimized, full-length, recombinant), sequence (Q80J95 995-1177): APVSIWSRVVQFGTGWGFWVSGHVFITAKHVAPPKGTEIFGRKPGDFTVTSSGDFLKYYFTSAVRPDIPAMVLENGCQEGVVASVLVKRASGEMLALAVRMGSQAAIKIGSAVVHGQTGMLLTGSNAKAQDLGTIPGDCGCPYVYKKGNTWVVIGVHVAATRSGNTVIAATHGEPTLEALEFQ
TGEV 3CLpro (full-length, 6 His, recombinant), sequence (P0C6V2 2879-3180): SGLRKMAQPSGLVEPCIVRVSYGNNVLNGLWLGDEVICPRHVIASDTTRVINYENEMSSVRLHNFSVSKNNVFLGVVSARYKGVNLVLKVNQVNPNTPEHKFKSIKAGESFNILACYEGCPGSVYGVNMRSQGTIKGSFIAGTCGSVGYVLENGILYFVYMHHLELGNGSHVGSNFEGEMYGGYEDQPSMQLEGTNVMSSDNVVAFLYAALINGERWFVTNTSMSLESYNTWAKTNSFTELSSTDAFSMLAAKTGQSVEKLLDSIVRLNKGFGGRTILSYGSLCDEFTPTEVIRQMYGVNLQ

## CC(C)C[C@H](NC(=O)OCc1ccccc1)C(=O)N[C@H](C=O)C[C@@H]1CCNC1=O [GC373]
[1]
  IC50: 1340 nM
[2]
  IC50: 990 ± 120 nM
[3]
  EC50: 0.3 µM
[4]
  inhibitory activity against Norwalk virus 3CL protease (in words): dose-dependent inhibition
[5]
  oral bioavailability, % F: 3 % F
[6]
  IC50: 640 nM
[7]
  IC50: 2020 ± 1560 nM
[8]
  EC50: > 100 µM
[9]; 24 hr post infection, read-out: Inhibition [ED50 (μM)] against FIPV-1146, 24 hrs
  EC50: 0.07 ± 0.04 µM
[9]; 48 hr post infection, read-out: Inhibition [ED50 (μM)] against FIPV-1146, 48 hrs
  EC50: 0.43 ± 0.35 µM
[10]
  IC50: 65000 nM
[11]
  EC50: 0.15 µM
[12]; 24 hr post infection, read-out: Inhibition [ED50 (μM)] against FECV-1683, 24 hrs
  EC50: 0.04 ± 0.01 µM
[12]; 48 hr post infection, read-out: Inhibition [ED50 (μM)] against FECV-1683, 48 hrs
  EC50: 0.09 ± 0.01 µM
[13]
  reduction of virus titers: 0.5 log10
[14]
  EC50: 2100 nM
[15]
  effectiveness against the replication of HAV in cells (in words): no or weak effectiveness
[16]
  EC50: 0.2 µM
[17]
  EC50: 2 µM
[18]
  effect on the activity of 3CLpro of NV, MD145, MNV-1 (in words): highly effective
[19]
  TD50, median toxic dose: > 320 µM
